Data reported in patent US9644019B2, “Compounds for treating cardiac damage after ischaemia/reperfusion” (priority 2010, dated 2017).

Assays:
[1] = system: EMMPRIN-induced MMP-9 expression; test: EMMPRIN-induced MMP-9 expression in MAEC cells (anti-MMP-9 immunodetection); format: cell-based, mouse; details: 100 μM DETA-NO, AP-9 peptide 0.08 mg/ml overnight, vs PBS
Protocol: MAEC cells were incubated with 100 μM of DETA-NO to induce EMMPRIN expression (B, D). MAEC cells without DETA-NO were used as a control (A, C). After 3 hours of treatment with DETA-NO, the MAEC cells were incubated overnight with AP-9 peptide (0.08 mg/ml) (C, D) or with PBS (A, B). The MAEC cells were fixed with 4% PFA, and MMP-9 expression was detected using an anti-MMP-9 antibody (1:1000). […] The cores were stained with DAPI.
Likewise, to ascertain if AP-9 peptide inhibited EMMPRIN-induced MMP-9 expression, MAEC cells were incubated with 100 μM of DETA-NO to induce EMMPRIN expression. After 3 hours of treatment with DETA-NO, the MAEC cells were incubated overnight with AP-9 peptide (0.08 mg/ml) or with PBS as a control without peptide. MAEC cells without DETA-NO were used as a control. Finally, the MAEC cells were fixed with 4% PFA and MMP-9 expression was detected using an anti-MMP-9 antibody (1:1000).

[2] = molecular target: T1, EMMPRIN (Mus musculus, UniProt P18572); test: AP-9 peptide / EMMPRIN co-localization in MAEC cells; format: binding; details: DETA-NO 100 μM overnight, 0.08 mg/ml AP-9 peptide
T1 construct: Said cells were incubated overnight with the nitric oxide donor (DETA-NO) (100 μM) to induce EMMPRIN expression; endogenous in cells; host or cells: MAEC (mouse aortic endothelial cells), fixed with 4% PFA
T1 sequence (P18572 22-273 isoform P18572-2 limits assumed): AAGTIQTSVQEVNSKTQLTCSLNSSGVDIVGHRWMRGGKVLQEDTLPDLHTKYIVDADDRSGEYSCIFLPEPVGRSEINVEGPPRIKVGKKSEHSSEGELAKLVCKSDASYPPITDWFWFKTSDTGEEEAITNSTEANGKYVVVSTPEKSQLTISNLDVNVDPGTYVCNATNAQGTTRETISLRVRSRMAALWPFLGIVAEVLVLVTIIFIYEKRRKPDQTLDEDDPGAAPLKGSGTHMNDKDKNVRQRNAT
Protocol: The MAEC cells were incubated overnight with the nitric oxide donor (DETA-NO) (100 μM) to induce EMMPRIN expression (right panel). The MAEC cells without DETA-NO were used as a control (left panel). The MAEC cells were fixed with 4% PFA and incubated with 0.08 mg/ml of AP-9 peptide. EMMPRIN expression was detected using an anti-EMMPRIN antibody (1:1000), observing that both signals co-localize (right panel, top right square). The cores were stained with DAPI.
MAEC cells (mouse aortic endothelial cells) were used for the in vitro assays. Said cells were incubated overnight with the nitric oxide donor (DETA-NO) (100 μM) to induce EMMPRIN expression. The MAEC cells without DETA-NO were used as a control. The MAEC cells were fixed with 4% PFA and incubated with 0.08 mg/ml of AP-9 peptide. EMMPRIN expression was subsequently detected using an anti-EMMPRIN antibody (1:1000).

Q: With “YKLPGHHHHYRP (SEQ ID NO: 3) [AP-9 peptide, EMMPRIN antagonist peptide described in the literature]” as the sequence, how does the “EMMPRIN-induced MMP-9 expression” value [1] read?
A: inhibition

Q: What about the “binding to EMMPRIN (co-localization of signals)” value [2] of the same sequence?
A: binds specifically
